Results on 19 compounds are retold here after patent publication US20230131899A1, “INHIBITORS OF MICROBIALLY INDUCED AMYLOID” (Axial Therapeutics, Inc., priority 2020, published 2023).

Read-outs that look alike come from different tables or passages of the source.

By inhibition is commonly meant the change of the read-out against control, counted positive when it falls.

The target of this assay is T1, human α-synuclein (Homo sapiens, UniProt P37840).
T1 construct: the full-length gene for untagged human α-synuclein was inserted; made in house; host or cells: E. coli BL21(DE3), plasmid derived from pT7 or pET11a
The assay can be described thus: Cell-free Thioflavin T assay of α-synuclein aggregation (αSyn ThT Assay). Format: biochemical. The following applies: αSyn 50 μM. Put shortly: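 Inhibition is reported as 100% minus background-corrected ThT signal relative to vehicle wells, taken at 36, 47, 48 or 72 h or the last read. Reactions held 50 μM recombinant α-synuclein, 20-100 μM compound, 20-40 μM ThT and 1% DMSO. Incubation was at 37° C., shaken, with a glass bead.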

Where [1] appears, read: class symbol, compounds 100 μM, read-out: αSyn ThT Assay % inhibition, activity range.
[2] abbreviates: mean percent inhibition relative to DMSO control, compounds 100 μM, read-out: αSyn ThT Assay % inhibition.
[3] abbreviates: mean % inhibition of αSyn aggregation relative to DMSO control, compounds at 100 μM, read-out: αSyn ThT Assay % Inhibition.
Setting [4] is: compounds at 100 μM, class symbol, read-out: αSyn ThT Assay % Inhibition (activity range).

On to `CN(C)C(=O)c1c(Cc2cccc3ccccc23)c(-c2cccc(C(F)(F)F)c2)c2n(c1=O)C(C(=O)O)CN(C)S2(=O)=O` (centres unmarked) [Compound 173, 7-(dimethylcarbamoyl)-2-methyl-8-(naphthalen-1-ylmethyl)-6-oxo-9-(3-(trifluoromethyl)phenyl)-3,4-dihydro-2H,6H-pyrido[1,2-e] [1,2,5] thiadiazine-4-carboxylic acid 1,1-dioxide], for which the inhibition at 100 µM by setting is: under setting [1], > 60%; under setting [2], 86%.

For the compound `CCCN1CC(C(=O)O)n2c(c(-c3cccc(C(F)(F)F)c3)c(Cc3cccc4ccccc34)c(C(N)=O)c2=O)S1(=O)=O` (centres unmarked) [Compound 172, 7-carbamoyl-8-(naphthalen-1-ylmethyl)-6-oxo-2-propyl-9-(3-(trifluoromethyl)phenyl)-3,4-dihydro-2H,6H-pyrido[1,2-e][1,2,5]thiadiazine-4-carboxylic acid 1,1-dioxide], the inhibition at 100 µM reads like this: under setting [1], > 60%; under setting [2], 98%.

`O=C(O)C1CN(Cc2ccncc2)c2c(-c3cccc(C(F)(F)F)c3)c(Cc3cccc4ccccc34)c(Cl)c(=O)n21` (centres unmarked) [Compound 174, 6-chloro-7-(naphthalen-1-ylmethyl)-5-oxo-1-(pyridin-4-ylmethyl)-8-(3-(trifluoromethyl)phenyl)-1,2,3,5-tetrahydroimidazo[1,2-a]pyridine-3-carboxylic acid]: the inhibition at 100 µM under setting [1] was 11 to 30% and the inhibition at 100 µM under setting [2] turned out to be 23%.

For `O=C(O)C1COc2c(-c3cccc(C(F)(F)F)c3)c(Cc3cccc4ccccc34)cc(=O)n21` (centres unmarked) [Compound 064, 7-(naphthalen-1-ylmethyl)-5-oxo-8-(3-(trifluoromethyl)phenyl)-2,3-dihydro-5H-oxazolo[3,2-a]pyridine-3-carboxylic acid], the inhibition at 100 µM was 37% under setting [3] and 31 to 60% under setting [4].

`O=C(O)C1CN(Cc2ccccc2)c2c(-c3cccc(C(F)(F)F)c3)c(Cc3cccc4ccccc34)c(F)c(=O)n21` (centres unmarked) [Compound 194, 1-benzyl-6-fluoro-7-(naphthalen-1-ylmethyl)-5-oxo-8-(3-(trifluoromethyl)phenyl)-1,2,3,5-tetrahydroimidazo[1,2-a]pyridine-3-carboxylic acid]: the inhibition at 100 µM runs as follows: under setting [1], 31 to 60%; under setting [2], 57%.

Turning to `O=C(O)C1CN(Cc2cccc(O)c2)c2c(-c3cccc(C(F)(F)F)c3)c(Cc3cccc4ccccc34)c(Cl)c(=O)n21` (centres unmarked) [Compound 196, 6-chloro-1-(3-hydroxybenzyl)-7-(naphthalen-1-ylmethyl)-5-oxo-8-(3-(trifluoromethyl)phenyl)-1,2,3,5-tetrahydroimidazo[1,2-a]pyridine-3-carboxylic acid], the inhibition at 100 µM was > 60% under setting [1] and 61% under setting [2].

For the compound `O=C(O)C1CN(CCCCCCCN2CC(C(=O)O)n3c2c(-c2cccc(C(F)(F)F)c2)c(Cc2cccc4ccccc24)c(Cl)c3=O)c2c(-c3cccc(C(F)(F)F)c3)c(Cc3cccc4ccccc34)c(Cl)c(=O)n21` (centres unmarked) [Compound 188, 1,1′-(heptane-1,7-diyl)bis(6-chloro-7-(naphthalen-1-ylmethyl)-5-oxo-8-(3-(trifluoromethyl)phenyl)-1,2,3,5-tetrahydroimidazo[1,2-a]pyridine-3-carboxylic acid)], the inhibition at 100 µM runs as follows: under setting [1], > 60%; under setting [2], 62%.

In the case of `CC1(C(=O)O)CNS(=O)(=O)c2c(-c3cccc(C(F)(F)F)c3)c(Cc3cccc4ccccc34)cc(=O)n21` (centres unmarked) [Compound 042, 4-methyl-8-(naphthalen-1-ylmethyl)-6-oxo-9-(3-(trifluoromethyl)phenyl)-3,4-dihydro-2H,6H-pyrido[1,2-e][1,2,5]thiadiazine-4-carboxylic acid 1,1-dioxide], the inhibition at 100 µM under setting [3] was determined as 84% and the inhibition at 100 µM under setting [4] was > 60%.

As to `Cn1c(=O)c2c(nc(CCCCCCCN3CC(C(=O)O)n4c(c(-c5cccc(C(F)(F)F)c5)c(Cc5cccc6ccccc56)cc4=O)S3(=O)=O)n2C)n(C)c1=O` (centres unmarked) [Compound 047, 8-(naphthalen-1-ylmethyl)-6-oxo-9-(3-(trifluoromethyl)phenyl)-2-(7-(1,3,7-trimethyl-2,6-dioxo-2,3,6,7-tetrahydro-1H-purin-8-yl)heptyl)-3,4-dihydro-2H,6H-pyrido[1,2-e][1,2,5]thiadiazine-4-carboxylic acid 1,1-dioxide], the inhibition at 100 µM under setting [3] amounted to 21% and the inhibition at 100 µM under setting [4] lay within 11 to 30%.

For `O=C(O)C1CN(CCc2ccccc2)c2c(-c3cccc(C(F)(F)F)c3)c(Cc3cccc4ccccc34)c(Cl)c(=O)n21` (centres unmarked) [Compound 178, 6-chloro-7-(naphthalen-1-ylmethyl)-5-oxo-1-phenethyl-8-(3-(trifluoromethyl)phenyl)-1,2,3,5-tetrahydroimidazo[1,2-a]pyridine-3-carboxylic acid], the inhibition at 100 µM was 31 to 60% under setting [1] and 43% under setting [2].

Consider `CN1CC(C(=O)O)n2c(c(-c3cccc(C(F)(F)F)c3)c(Cc3cccc4ccccc34)c(C(=O)N3CCOCC3)c2=O)S1(=O)=O` (centres unmarked) [Compound 160, 2-methyl-7-(morpholine-4-carbonyl)-8-(naphthalen-1-ylmethyl)-6-oxo-9-(3-(trifluoromethyl)phenyl)-3,4-dihydro-2H,6H-pyrido[1,2-e][1,2,5] thiadiazine-4-carboxylic acid 1,1-dioxide], for which the inhibition at 100 µM by setting is: under setting [1], 11 to 30%; under setting [2], 17%.

In the case of `CCCN1CC(C(=O)O)n2c(c(-c3cccc(C(F)(F)F)c3)c(Cc3cccc4ccccc34)c(NC(=O)CC)c2=O)S1(=O)=O` (centres unmarked) [Compound 153, 8-(naphthalen-1-ylmethyl)-6-oxo-7-propionamido-2-propyl-9-(3-(trifluoromethyl)phenyl)-3,4-dihydro-2H,6H-pyrido[1,2-e][1,2,5]thiadiazine-4-carboxylic acid 1,1-dioxide], the inhibition at 100 µM under setting [1] fell in the range of 31 to 60% and the inhibition at 100 µM under setting [2] was found to be 48%.

For `CCCN1CC(C(=O)O)n2c(c(-c3cccc(C(F)(F)F)c3)c(C(F)(F)c3cccc4ccccc34)cc2=O)S1(=O)=O` (centres unmarked) [Compound 138, 8-(difluoro(naphthalen-1-yl)methyl)-6-oxo-2-propyl-9-(3-(trifluoromethyl)phenyl)-3,4-dihydro-2H,6H-pyrido[1,2-e][1,2,5]thiadiazine-4-carboxylic acid 1,1-dioxide], the inhibition at 100 µM was > 60% under setting [1] and 74% under setting [2].

For the compound `O=C(O)C1CN(Cc2ccccc2)c2c(-c3cccc(C(F)(F)F)c3)c(Cc3cccc4ccccc34)cc(=O)n21` (centres unmarked) [Compound 187, 1-benzyl-7-(naphthalen-1-ylmethyl)-5-oxo-8-(3-(trifluoromethyl)phenyl)-1,2,3,5-tetrahydroimidazo[1,2-a]pyridine-3-carboxylic acid], the inhibition at 100 µM by setting is: under setting [1], 31 to 60%; under setting [2], 45%.

For the compound `O=C(O)C1CN(CCCCCCN2CC(C(=O)O)n3c2c(-c2cccc(C(F)(F)F)c2)c(Cc2cccc4ccccc24)c(Cl)c3=O)c2c(-c3cccc(C(F)(F)F)c3)c(Cc3cccc4ccccc34)c(Cl)c(=O)n21` (centres unmarked) [Compound 193, 1,1′-(hexane-1,6-diyl)bis(6-chloro-7-(naphthalen-1-ylmethyl)-5-oxo-8-(3-(trifluoromethyl)phenyl)-1,2,3,5-tetrahydroimidazo[1,2-a]pyridine-3-carboxylic acid)], the inhibition at 100 µM is > 60% under setting [1] and 69% under setting [2].

Consider `Cn1c(=O)c2c(nc(CCCCCCN3CC(C(=O)O)n4c(c(-c5cccc(C(F)(F)F)c5)c(Cc5cccc6ccccc56)cc4=O)S3(=O)=O)n2C)n(C)c1=O` (centres unmarked) [Compound 046, 8-(naphthalen-1-ylmethyl)-6-oxo-9-(3-(trifluoromethyl)phenyl)-2-(6-(1,3,7-trimethyl-2,6-dioxo-2,3,6,7-tetrahydro-1H-purin-8-yl)hexyl)-3,4-dihydro-2H,6H-pyrido[1,2-e][1,2,5]thiadiazine-4-carboxylic acid 1,1-dioxide], for which the inhibition at 100 µM by setting is: under setting [3], 28%; under setting [4], 11 to 30%.

Consider `O=C(O)[C@H]1CN(Cc2ccccc2)c2c(-c3cccc(C(F)(F)F)c3)c(Cc3cccc4ccccc34)c(Cl)c(=O)n21` (single isomer, unassigned) [Compound 004b], for which the inhibition at 100 µM was 31 to 60% under setting [1] and 44% under setting [2].

As for `CC(C)N1CC(C(=O)O)n2c(c(-c3cccc(C(F)(F)F)c3)c(Cc3cccc4ccccc34)c(C(N)=O)c2=O)S1(=O)=O` (centres unmarked) [Compound 175, 7-carbamoyl-2-isopropyl-8-(naphthalen-1-ylmethyl)-6-oxo-9-(3-(trifluoromethyl)phenyl)-3,4-dihydro-2H,6H-pyrido[1,2-e][1,2,5]thiadiazine-4-carboxylic acid 1,1-dioxide], the inhibition at 100 µM under setting [1] is > 60% and the inhibition at 100 µM under setting [2] is 98%.

As for `Cn1c(=O)c2c(ncn2CCCCN2CC(C(=O)O)n3c(c(-c4cccc(C(F)(F)F)c4)c(Cc4cccc5ccccc45)cc3=O)S2(=O)=O)n(C)c1=O` (centres unmarked) [Compound 033, 2-(4-(1,3-dimethyl-2,6-dioxo-1,2,3,6-tetrahydro-7H-purin-7-yl)butyl)-8-(naphthalen-1-ylmethyl)-6-oxo-9-(3-(trifluoromethyl)phenyl)-3,4-dihydro-2H,6H-pyrido[1,2-e][1,2,5]thiadiazine-4-carboxylic acid 1,1-dioxide], the inhibition at 100 µM is 6% under setting [3] and -10 to 10% under setting [4].
